# Measurements from patent US6740642B2, “Macrolides with antibacterial activity” (BAsilea Parmaceutica AG, priority 2000, dated 2004).
# Legend:
# H. influenzae 11 = experiment: MIC, agar dilution, HTM medium; type: cell-based, Haemophilus influenzae; details: Haemophilus influenzae, read-out: MIC
# Text: (§1) The biological activities of compounds of the present invention against Haemophilus influenzae have been determined by standard agar dilution method using HTM medium (National Committee for Clinical Laboratory Standards. 1997. Methods for dilution antimicrobial susceptibility tests for bacteria that grow aerobically, 4th edition. Approved standard M7-A4. National Committee for Clinical Laboratory Standards, Wayne, Pa.).
# H. influenzae 12214 = experiment: MIC, agar dilution, HTM medium; type: cell-based, Haemophilus influenzae; details: Haemophilus influenzae, read-out: MIC
# Text: as §1
# H. influenzae 1 = experiment: MIC, agar dilution, HTM medium; type: cell-based, Haemophilus influenzae; details: Haemophilus influenzae, read-out: MIC
# Text: as §1
# H. influenzae 23145 = experiment: MIC, agar dilution, HTM medium; type: cell-based, Haemophilus influenzae; details: Haemophilus influenzae, read-out: MIC
# Text: as §1
# H. influenzae 23369 = experiment: MIC, agar dilution, HTM medium; type: cell-based, Haemophilus influenzae; details: Haemophilus influenzae, read-out: MIC
# Text: as §1
# H. influenzae 2947 = experiment: MIC, agar dilution, HTM medium; type: cell-based, Haemophilus influenzae; details: Haemophilus influenzae, read-out: MIC
# Text: as §1
# H. influenzae 3201 = experiment: MIC, agar dilution, HTM medium; type: cell-based, Haemophilus influenzae; details: Haemophilus influenzae, read-out: MIC
# Text: as §1
# H. influenzae 3457 = experiment: MIC, agar dilution, HTM medium; type: cell-based, Haemophilus influenzae; details: Haemophilus influenzae, read-out: MIC
# Text: as §1
# H. influenzae 3640 = experiment: MIC, agar dilution, HTM medium; type: cell-based, Haemophilus influenzae; details: Haemophilus influenzae, read-out: MIC
# Text: as §1
# H. influenzae 4139 = experiment: MIC, agar dilution, HTM medium; type: cell-based, Haemophilus influenzae; details: Haemophilus influenzae, read-out: MIC
# Text: as §1
# H. influenzae ATCC 49247 = experiment: MIC, agar dilution, HTM medium; type: cell-based, Haemophilus influenzae; details: Haemophilus influenzae, ATCC49247, read-out: MIC
# Text: as §1
# H. influenzae ATCC 9334 = experiment: MIC, agar dilution, HTM medium; type: cell-based, Haemophilus influenzae; details: Haemophilus influenzae, ATCC9334, read-out: MIC
# Text: as §1
# H. influenzae B 1501 = experiment: MIC, agar dilution, HTM medium; type: cell-based, Haemophilus influenzae; details: Haemophilus influenzae, B1501, read-out: MIC
# Text: as §1
# H. influenzae Christy = experiment: MIC, agar dilution, HTM medium; type: cell-based, Haemophilus influenzae; details: Haemophilus influenzae, read-out: MIC
# Text: as §1
# H. influenzae H13 LAH = experiment: MIC, agar dilution, HTM medium; type: cell-based, Haemophilus influenzae; details: Haemophilus influenzae, H13LAH, read-out: MIC
# Text: as §1
# H. influenzae H20 HDL = experiment: MIC, agar dilution, HTM medium; type: cell-based, Haemophilus influenzae; details: Haemophilus influenzae, H20HDL, read-out: MIC
# Text: as §1
# H. influenzae H28 HEL = experiment: MIC, agar dilution, HTM medium; type: cell-based, Haemophilus influenzae; details: Haemophilus influenzae, H28HEL, read-out: MIC
# Text: as §1
# H. influenzae H36 ODL = experiment: MIC, agar dilution, HTM medium; type: cell-based, Haemophilus influenzae; details: Haemophilus influenzae, H36ODL, read-out: MIC
# Text: as §1
# H. influenzae QK 12/87 = experiment: MIC, agar dilution, HTM medium; type: cell-based, Haemophilus influenzae; details: Haemophilus influenzae, QK12/87, read-out: MIC
# Text: as §1
# H. influenzae QK 50 = experiment: MIC, agar dilution, HTM medium; type: cell-based, Haemophilus influenzae; details: Haemophilus influenzae, QK50, read-out: MIC
# Text: as §1
# H. influenzae Rd KW20 = experiment: MIC, agar dilution, HTM medium; type: cell-based, Haemophilus influenzae; details: Haemophilus influenzae, RDKW20, read-out: MIC
# Text: as §1
# S. aureus 1086 = experiment: MIC, standard microdilution; type: cell-based, Staphylococcus aureus; details: for MIC: Staphylococcus aureus, read-out: minimum inhibitory concentration (MIC)
# Text: (§2) The antibacterial activities of the compounds have been determined by standard microdilution technique (National Committee for Clinical Laboratory Standards. 1997. Methods for dilution antimicrobial susceptibility tests for bacteria that grow aerobically, 4th edition. Approved standard M7-A4. National Committee for Clinical Laboratory Standards, Wayne, Pa.).
# S. aureus 745 = experiment: MIC, standard microdilution; type: cell-based, Staphylococcus aureus; details: for MIC: Staphylococcus aureus, read-out: minimum inhibitory concentration (MIC)
# Text: as §2
# S. aureus ATCC29213 = experiment: MIC, standard microdilution; type: cell-based, Staphylococcus aureus; details: for MIC: Staphylococcus aureus, read-out: minimum inhibitory concentration (MIC)
# Text: as §2
# E. coli ATCC25922 = experiment: MIC, standard microdilution; type: cell-based; details: for MIC: Escherichia coli, read-out: minimum inhibitory concentration (MIC)
# Text: as §2
# [1] = test system: P. aeruginosa ATCC27853 (+Ery. 32 μg/ml); experiment: MIC, standard microdilution; type: cell-based
# Text: as §2
# St. pneumoniae 1/1 = experiment: MIC, standard microdilution; type: cell-based, Streptococcus pneumoniae; details: for MIC: Streptococcus pneumoniae, read-out: minimum inhibitory concentration (MIC)
# Text: as §2
# St. pneumoniae 1/4 = experiment: MIC, standard microdilution; type: cell-based, Streptococcus pneumoniae; details: for MIC: Streptococcus pneumoniae, read-out: minimum inhibitory concentration (MIC)
# Text: as §2
# St. pneumoniae 12288 = experiment: MIC, standard microdilution; type: cell-based, Streptococcus pneumoniae; details: for MIC: Streptococcus pneumoniae, read-out: minimum inhibitory concentration (MIC)
# Text: as §2
# St. pneumoniae SL199T = experiment: MIC, standard microdilution; type: cell-based, Streptococcus pneumoniae; details: for MIC: Streptococcus pneumoniae, read-out: minimum inhibitory concentration (MIC)
# Text: as §2
compound,measurement,setting,value
"CC[C@H]1OC(=O)[C@H](C)[C@@H](O[C@H]2C[C@@](C)(OC)[C@@H](O)C(C)O2)[C@H](C)[C@@H](O[C@@H]2OC(C)C[C@H](N(C)C)[C@H]2O)[C@](C)(O)C[C@@H](C)CN(C)C(C)C(O)[C@]1(C)O (stereo partly drawn) [Azithromycin (3), azithromycin]",MIC,H. influenzae 11,2 µg/mL
same,MIC,H. influenzae 12214,2 µg/mL
same,MIC,H. influenzae 1,2 µg/mL
same,MIC,H. influenzae 23145,2 µg/mL
same,MIC,H. influenzae 23369,4 µg/mL
same,MIC,H. influenzae 2947,2 µg/mL
same,MIC,H. influenzae 3201,2 µg/mL
same,MIC,H. influenzae 3457,0.5 µg/mL
same,MIC,H. influenzae 3640,1 µg/mL
same,MIC,H. influenzae 4139,0.5 µg/mL
same,MIC,H. influenzae ATCC 49247,2 µg/mL
same,MIC,H. influenzae ATCC 9334,2 µg/mL
same,MIC,H. influenzae B 1501,1 µg/mL
same,MIC,H. influenzae Christy,2 µg/mL
same,MIC,H. influenzae H13 LAH,2 µg/mL
same,MIC,H. influenzae H20 HDL,1 µg/mL
same,MIC,H. influenzae H28 HEL,1 µg/mL
same,MIC,H. influenzae H36 ODL,2 µg/mL
same,MIC,H. influenzae QK 12/87,0.5 µg/mL
same,MIC,H. influenzae QK 50,2 µg/mL
same,MIC,H. influenzae Rd KW20,2 µg/mL
"CC[C@H]1OC(=O)[C@H](C)C(=O)[C@H](C)[C@@H](O[C@@H]2O[C@H](C)C[C@H](N(C)C)[C@H]2O)[C@](C)(OC)C[C@@H](C)C(=O)[C@H](C)[C@H]2[C@H](C#N)C(=O)O[C@@]21C [Compound I-23, (3R,3aS,4R,6R,8R,9R,10R,12R,15R,15aS)-15-Ethyltetradecahydro-8-methoxy-4,6,8,10,12,15a-hexamethyl-2,5,11,13-tetraoxo-9-[[3,4,6-trideoxy-3-(dimethylamino)-β-D-xylo-hexopyranosyl]oxy]-2H-furo[2,3-c]oxacyclotetradecin-3-carbonitrile]",MIC,S. aureus 1086,≤ 0.25 µg/mL
same,MIC,S. aureus 745,> 16 µg/mL
same,MIC,S. aureus ATCC29213,≤ 0.25 µg/mL
same,MIC,E. coli ATCC25922,> 16 µg/mL
same,minimum inhibitory concentration (MIC),[1],>16 µg/mL
same,MIC,St. pneumoniae 1/1,≤ 0.5 µg/mL
same,MIC,St. pneumoniae 1/4,8 µg/mL
same,MIC,St. pneumoniae 12288,> 32 µg/mL
same,MIC,St. pneumoniae SL199T,32 µg/mL
"CC[C@H]1OC(=O)[C@H](C)C(=O)[C@H](C)[C@@H](O[C@@H]2O[C@H](C)C[C@H](N(C)C)[C@H]2O)[C@](C)(OC)C[C@@H](C)C(=O)[C@H](C)[C@H]2[C@H](S(=O)(=O)CCCc3ccccc3)C(=O)O[C@@]21C [Compound I-24, (3S,3aR,4R,6R,8R,9R,10R,12R,15R,15aS)-15-Ethyloctahydro-8-methoxy-4,6,8,10,12,15a-hexamethyl-3-[(3-phenylpropyl)sulfonyl]-9-[[3,4,6-trideoxy-3-(dimethylamino)-β-D-xylo-hexopyranosyl]oxy]-2H-furo[2,3-c]oxacyclotetradecin-2,5,11,13(3H,6H,12H)-tetrone]",MIC,S. aureus 1086,1 µg/mL
same,MIC,S. aureus 745,> 16 µg/mL
same,MIC,S. aureus ATCC29213,1 µg/mL
same,MIC,E. coli ATCC25922,> 16 µg/mL
same,minimum inhibitory concentration (MIC),[1],>16 µg/mL
same,MIC,St. pneumoniae 1/1,≤ 0.5 µg/mL
same,MIC,St. pneumoniae 1/4,1 µg/mL
same,MIC,St. pneumoniae 12288,16 µg/mL
same,MIC,St. pneumoniae SL199T,16 µg/mL
"CC[C@H]1OC(=O)[C@H](C)C(=O)[C@H](C)[C@@H](O[C@@H]2O[C@H](C)C[C@H](N(C)C)[C@H]2O)[C@](C)(OC)C[C@@H](C)C(=O)[C@H](C)[C@H]2CC(=O)O[C@@]21C [Compound I-25, (3aR,4R,6R,8R,9R,10R,12R,15R,15aS)-15-Ethyloctahydro-8-methoxy-4,6,8,10,12,15a-hexamethyl-9-[[3,4,6-trideoxy-3-(dimethylamino)-β-D-xylo-hexopyranosyl]oxy]-2H-furo[2,3-c]oxacyclotetradecin-2,5,11,13 (3H,6H,12H)-tetrone]",MIC,S. aureus 1086,0.5 µg/mL
same,MIC,S. aureus 745,> 16 µg/mL
same,MIC,S. aureus ATCC29213,0.5 µg/mL
same,MIC,E. coli ATCC25922,> 16 µg/mL
same,minimum inhibitory concentration (MIC),[1],>16 µg/mL
same,MIC,St. pneumoniae 1/1,≤ 0.12 µg/mL
same,MIC,St. pneumoniae 1/4,16 µg/mL
same,MIC,St. pneumoniae 12288,> 16 µg/mL
same,MIC,St. pneumoniae SL199T,> 16 µg/mL
"CC[C@H]1OC(=O)[C@H](C)C(=O)[C@H](C)[C@@H](O[C@@H]2O[C@H](C)C[C@H](N(C)C)[C@H]2O)[C@](C)(OC)C[C@@H](C)C(=O)[C@H](C)[C@H]2[C@H](SCCCn3cnc4c(N)ncnc43)C(=O)O[C@@]21C [Compound I-26, (3S,3aR,4R,6R,8R,9R,10R,12R,15R,15aS)-3-[[3-[6-Amino-9H-purine-9-yl]propyl]thio]-15-ethyloctahydro-8-methoxy-4,6,8,10,12,15a-hexamethyl-9-[[3,4,6-trideoxy-3-(dimethylamino)-β-D-xylo-hexopyranosyl]oxy]-2H-furo[2,3-c]oxacyclotetradecin-2,5,11,13(3H,6H,12H)-tetrone]",MIC,S. aureus 1086,≤ 0.12 µg/mL
same,MIC,S. aureus 745,> 16 µg/mL
same,MIC,S. aureus ATCC29213,≤ 0.12 µg/mL
same,MIC,E. coli ATCC25922,16 µg/mL
same,minimum inhibitory concentration (MIC),[1],>16 µg/mL
same,MIC,St. pneumoniae 1/1,≤ 0.25 µg/mL
same,MIC,St. pneumoniae 1/4,≤ 0.25 µg/mL
same,MIC,St. pneumoniae 12288,0.25 µg/mL
same,MIC,St. pneumoniae SL199T,≤ 0.25 µg/mL
"CC[C@H]1OC(=O)[C@H](C)C(=O)[C@H](C)[C@@H](O[C@@H]2O[C@H](C)C[C@H](N(C)C)[C@H]2O)[C@](C)(OC)C[C@@H](C)C(=O)[C@H](C)[C@H]2[C@H](SCCn3cnc4c(N(C)C)ncnc43)C(=O)O[C@@]21C [Compound I-27, (3S,3aR,4R,6R,8R,9R,10R,12R,15R,15aS)-3-[[2-[6-N,N-Dimethylamino-9H-purine-9-yl]ethyl]thio]-15-ethyloctahydro-8-methoxy-4,6,8,10,12,15a-hexamethyl-9-[[3,4,6-trideoxy-3-(dimethylamino)-β-D-xylo-hexopyranosyl]oxy]-2H-furo[2,3-c]oxacyclotetradecin-2,5,11,13(3H,6H,12H)-tetrone]",minimum inhibitory concentration (MIC),S. aureus 1086,1 µg/mL
same,minimum inhibitory concentration (MIC),S. aureus 745,>16 µg/mL
same,minimum inhibitory concentration (MIC),S. aureus ATCC29213,0.25 µg/mL
same,minimum inhibitory concentration (MIC),E. coli ATCC25922,>16 µg/mL
same,minimum inhibitory concentration (MIC),[1],>16 µg/mL
same,minimum inhibitory concentration (MIC),St. pneumoniae 1/1,<=0.25 μg/ml
same,minimum inhibitory concentration (MIC),St. pneumoniae 1/4,<=0.25 μg/ml
same,minimum inhibitory concentration (MIC),St. pneumoniae 12288,2 µg/mL
same,minimum inhibitory concentration (MIC),St. pneumoniae SL199T,1 µg/mL
"CO[C@@H]1[C@@H](O[C@@H]2O[C@H](C)[C@@H](O[C@H]3C[C@@](C)(O)[C@@H](OC(=O)CC(C)C)[C@H](C)O3)[C@H](N(C)C)[C@H]2O)[C@@H](CC=O)C[C@@H](C)[C@@H](O)/C=C/C=C/C[C@@H](C)OC(=O)C[C@H]1OC(C)=O [Josamycin, reference compound]",MIC,S. aureus 1086,2 µg/mL
same,MIC,S. aureus 745,> 16 µg/mL
same,MIC,S. aureus ATCC29213,2 µg/mL
same,MIC,E. coli ATCC25922,> 16 µg/mL
same,minimum inhibitory concentration (MIC),[1],>16 µg/mL
same,MIC,St. pneumoniae 1/1,≤ 0.12 µg/mL
same,MIC,St. pneumoniae 1/4,≤ 4 µg/mL
same,MIC,St. pneumoniae 12288,> 16 µg/mL
same,MIC,St. pneumoniae SL199T,> 16 µg/mL
